This note sets out measurements from patent publication US11389438B2 (CHDI Foundation, Inc., priority 2019, dated 2022).

Data set [1] concerns the target pre-formed polyQ46 or Exon1-polyQ46 aggregates (mHTT) (Homo sapiens, UniProt P42858, INS38QQQQQQQQQQQQQQQQQQQQQQQQQ). Nature of the data set: Q46_RBA radioligand binding assay (displacement of [3H]-radioligand). As for the experimental part: Binding of W to mHTT. A radioligand binding assay was developed to screen for compounds which can efficiently displace a radioligand detailed elsewhere (see, e.g., U.S. Patent Publication No. from US 2017/0292150) pre-formed polyQ46 or Exon1-polyQ46 aggregates (Q46_RBA).
Aggregation of polyQ peptides is initiated by cleavage of the tag from a GST-polyQ46 or from a MBP-Exon1-polyQ46 fusion protein. The pre-formed aggregates are then incubated with compounds which compete with the [^3H]-radiolabelled ligand for binding to the aggregates. The readout is a scintillation based MicroBeta measurement of radioligand bound to aggregates. The activity was indicated as: +++, <100 nM; ++, 100-500 nM, +, >500 nM.

Data set [2] concerns the target mouse CRBN thalidomide binding domain (mCRBN-TBD) (Mus musculus (Mouse), UniProt Q8C7D2). Kind of data set: CRBN SPR assay. As to conditions: immobilized mCRBN-TBD. From the text: (§1) Surface Plasmon Resonance (SPR) assays have been developed to test the affinity (KD) of VHL or CRBN-based compounds to respective recombinant ligase complex/domain.
(§2) The assays are based on surface plasmon resonance (SPR), which enables to measure the changes of the local refractive index due to changes of molecular mass on a gold chip surface in the case of a binding event and in a flowing system. To detect binding between both partners, the respective E3 ligase is immobilized to the chip surface, while the test compounds are flown over the chip surface at a steady velocity. The detected changes in the RU response are indicative of the binding event and are concentration dependent.
(§3) These tags provide the anchor for the capturing process to either an NTA or Streptavidin coated chip surface (immobilization level of 3,000-5,000 RU). Because of the rather complex structure of the VHL complex, it was additionally coupled to the chip surface by amino coupling to prevent any protein loss by disruption of the complex in the flowing system.
(§4) To detect binding of compounds and extract dissociation constants KD for the tested compounds to the immobilized E3 ligase, concentration response curves of the compounds were recorded. Compounds were usually tested in 10-pt dilutions up to 20 μM final concentration in assay buffer and were flown over the chip at 30 μL/min. The contact time for each cycle includes 90 s for association and 200 s for dissociation of compounds.
(§5) In the following tables, the Kd values are indicated as: +++, <100 nM; ++, 100-500 nM, +, >500 nM.

In data set [3] the target is HTT-Exon1-Q73-EGFP in HeLa cells (soluble mHTT) (Homo sapiens (Human), UniProt P42858, INS38QQQQQQQQQQQQQQQQQQQQQQQQQQQQQQQQQQQQQQQQQQQQQQQQQQQQ). Nature of the data set: HTT degradation assay, soluble mHTT MSD assay. Format: cell-based. As to conditions: HeLa cells transfected with Exon1-Q73-EGFP, 22 hr, 0.01-10 μM. As for the experimental part: (§6) Compounds described herein were tested for efficacy in HTT-lowering in human HeLa cells transiently overexpressing HTT-Exon1-polyQn proteins. For HTT degradation experiments HeLa cells were transiently transfected with pcDNA3.1(+)-hHTT-E1mixQn-EGFP plasmids for transient expression of HTT-Exon1 proteins of different polyQ length (HTT-exon1-Q23/73/145-EGFP). Two hours after transfection the cells were treated with test compounds at 7 concentrations from 0.01 μM to 10 μM (final assay concentration)+DMSO control. After a 22 hr incubation with test compounds the cells were washed with 1×PBS and lysed in MSD lysis buffer (150 mM NaCl; 20 mM Tris ph 7.5; 1 mM EDTA, 1 mM EGTA; 1% Triton X-100, 1× Phosphatase Inh. Cocktail 2, 1× Phosphatase Inh. Cocktail 3, 1× Protease Inh. Cocktail, 10 mM NaF, 1 mM PMSF) for 30 min on ice. […]
(§7) After an additional washing step, 10 μL per sample were transferred to each well of the antibody-coated MSD plate and incubated with shaking for 1 h at RT. […] After washing three times with washing buffer, 35 μL of read buffer T with surfactant (Meso Scale Discovery) were added to each well. […] The obtained readout is the MSD signal intensity for each well. […]

Data set [4] concerns the target VHL complex (VHL, Elongin B, Elongin C, Cul2, Rbx1) (Homo sapiens (Human), UniProt P40337). Kind of data set: VHL SPR assay. Format: binding. The note with it: immobilized VHL complex; read-out: VHL SPR Kd.
From the text: as §1, §2, §3, §4, §5

In data set [5] the target is HTT-Exon1-Q73-EGFP in HeLa cells (aggregated HTT) (Homo sapiens (Human), UniProt P42858, INS38QQQQQQQQQQQQQQQQQQQQQQQQQQQQQQQQQQQQQQQQQQQQQQQQQQQQ). Kind of data set: HTT degradation assay, aggregated HTT MSD assay. Format: cell-based. As to conditions: HeLa cells transfected with Exon1-Q73-EGFP, 22 hr, 0.01-10 μM. Here is the method: as §6, §7
The mark [6] stands for this setting: class symbols, read-out: Q46_RBA IC50.

Each structure is given as a SMILES string. Read-outs that look alike come from different tables or passages of the source.

mouse CRBN thalidomide binding domain (mCRBN-TBD), sequence (Q8C7D2 321-429): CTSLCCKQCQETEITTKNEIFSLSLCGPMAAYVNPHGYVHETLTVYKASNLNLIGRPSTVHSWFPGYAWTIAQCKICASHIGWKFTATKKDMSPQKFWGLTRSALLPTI
HTT-Exon1-Q73-EGFP in HeLa cells (soluble mHTT), sequence (P42858 other isoform, or with tags, fused parts or gaps limits assumed, stated change not applied): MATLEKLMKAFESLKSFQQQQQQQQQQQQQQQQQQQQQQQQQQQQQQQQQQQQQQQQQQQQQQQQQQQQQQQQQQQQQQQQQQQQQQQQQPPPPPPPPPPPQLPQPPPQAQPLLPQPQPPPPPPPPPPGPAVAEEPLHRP
VHL complex (VHL, Elongin B, Elongin C, Cul2, Rbx1), sequence (P40337 whole entry, looked up): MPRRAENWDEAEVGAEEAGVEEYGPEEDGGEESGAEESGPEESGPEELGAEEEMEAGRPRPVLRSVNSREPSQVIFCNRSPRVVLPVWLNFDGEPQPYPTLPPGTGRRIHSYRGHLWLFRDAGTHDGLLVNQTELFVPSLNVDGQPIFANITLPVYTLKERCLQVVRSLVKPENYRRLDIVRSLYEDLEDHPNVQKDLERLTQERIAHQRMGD
VHL complex (VHL, Elongin B, Elongin C, Cul2, Rbx1), sequence (Q15370 whole entry partner, looked up): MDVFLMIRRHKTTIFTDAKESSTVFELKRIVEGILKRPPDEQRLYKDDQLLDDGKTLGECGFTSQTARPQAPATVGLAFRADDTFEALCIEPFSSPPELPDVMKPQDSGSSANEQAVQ
VHL complex (VHL, Elongin B, Elongin C, Cul2, Rbx1), sequence (Q15369 whole entry partner, looked up): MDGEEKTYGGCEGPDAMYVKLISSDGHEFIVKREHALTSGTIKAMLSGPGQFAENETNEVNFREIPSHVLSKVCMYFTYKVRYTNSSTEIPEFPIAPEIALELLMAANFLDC
VHL complex (VHL, Elongin B, Elongin C, Cul2, Rbx1), sequence (Q13617 whole entry partner, looked up): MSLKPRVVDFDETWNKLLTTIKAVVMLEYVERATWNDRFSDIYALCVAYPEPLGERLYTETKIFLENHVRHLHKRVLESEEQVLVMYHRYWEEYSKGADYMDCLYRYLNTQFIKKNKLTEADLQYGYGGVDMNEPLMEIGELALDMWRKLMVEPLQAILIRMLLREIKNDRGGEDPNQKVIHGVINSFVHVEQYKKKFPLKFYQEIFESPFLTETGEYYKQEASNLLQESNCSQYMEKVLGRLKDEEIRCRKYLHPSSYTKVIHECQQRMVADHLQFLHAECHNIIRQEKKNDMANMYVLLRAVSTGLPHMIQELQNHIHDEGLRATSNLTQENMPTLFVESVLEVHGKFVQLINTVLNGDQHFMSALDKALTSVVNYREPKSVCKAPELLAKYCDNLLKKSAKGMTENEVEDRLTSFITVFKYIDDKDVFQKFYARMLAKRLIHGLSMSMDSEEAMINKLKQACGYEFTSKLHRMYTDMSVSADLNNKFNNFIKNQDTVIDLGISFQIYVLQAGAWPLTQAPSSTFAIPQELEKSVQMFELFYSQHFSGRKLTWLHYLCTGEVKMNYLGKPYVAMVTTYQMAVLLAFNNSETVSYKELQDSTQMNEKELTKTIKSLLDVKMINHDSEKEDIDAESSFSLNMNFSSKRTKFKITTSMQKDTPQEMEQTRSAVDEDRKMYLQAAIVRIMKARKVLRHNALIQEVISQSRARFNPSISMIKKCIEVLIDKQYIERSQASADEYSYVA
VHL complex (VHL, Elongin B, Elongin C, Cul2, Rbx1), sequence (P62877 whole entry partner, looked up): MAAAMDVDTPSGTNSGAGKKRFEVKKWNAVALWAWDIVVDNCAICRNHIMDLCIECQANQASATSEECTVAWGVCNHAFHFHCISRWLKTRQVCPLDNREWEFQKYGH
HTT-Exon1-Q73-EGFP in HeLa cells (aggregated HTT), sequence (P42858 other isoform, or with tags, fused parts or gaps limits assumed, stated change not applied): as the sequence (P42858 other isoform, or with tags, fused parts or gaps limits assumed, stated change not applied) above

With `Cn1nc(-c2nc3cc(OCc4ccc(OCCOCCOCCNc5cccc6c5C(=O)N(C5CCC(=O)NC5=O)C6=O)cn4)ccc3o2)ccc1=O` (stereo not drawn) [Compound 31, 2-(2,6-Dioxopiperidin-3-yl)-4-({2-[2-(2-{[6-({[2-(1-methyl-6-oxo-1,6-dihydropyridazin-3-yl)-1,3-benzoxazol-5-yl]oxy}methyl)pyridin-3-yl]oxy}ethoxy)ethoxy]ethyl}amino)-2,3-dihydro-1H-isoindole-1,3-dione], the IC50 in data set [1] is below 0.1 µM. The molecule further yielded a Kd in data set [2] of 0.1 to 0.5 µM.
For `Cn1nc(-c2nc3cc(NC(=O)c4ccc(OCCOCCOCCOCCOCCOCCOCCOCCOCCNc5cccc6c5C(=O)N(C5CCC(=O)NC5=O)C6=O)cn4)ccc3o2)ccc1=O` (stereo not drawn) [Compound 38] the same measures were below 0.1 µM and 0.1 to 0.5 µM.
`CNc1c(-c2cn3c(n2)sc2cc(OCCOCC(=O)N[C@@H](C(=O)N4C[C@@H](O)C[C@@H]4C(=O)NCc4ccc(-c5scnc5C)cc4)C(C)(C)C)ccc23)nc2cc(C#N)ccn12` [Compound 10]: in data set [1], the IC50 is below 0.1 µM. In data set [3], the “Reduction of soluble mHTT Exon1-Q73 levels” value is recorded as “less active”.
Turning to `CNc1c(-c2cn3c(n2)sc2cc(OCCOCC(=O)N[C@H](C(=O)N4C[C@H](O)C[C@H]4C(=O)NCc4ccc(-c5scnc5C)cc4)C(C)(C)C)ccc23)nc2cc(C#N)ccn12` [Compound 1], the IC50 in data set [1] was below 0.1 µM. In data set [4], the Kd was 0.1 to 0.5 µM. Moreover, in data set [3], the “Reduction of soluble mHTT Exon1-Q73 levels” value was “confirmed”. Besides, in data set [5], the “Reduction of aggregated mHTT Exon1-Q73 levels” value is listed as “confirmed”.
With `CN1C(=O)CCC(N2C(=O)c3cccc(NCCOCCOCCOc4ccc(C(=O)Nc5ccc6oc(-c7ccc(=O)n(C)n7)nc6c5)nc4)c3C2=O)C1=O` (stereo not drawn) [Compound 70], the IC50 in data set [1] is below 0.1 µM. The same molecule returned a Kd in data set [2] above 0.5 µM.
`Cn1nc(-c2nc3cc(NC(=O)c4ccc(OCCOCCOCCNc5cccc6c5C(=O)N(C5CCC(=O)NC5=O)C6=O)cn4)ccc3o2)ccc1=O` (stereo not drawn) [Compound 33, 5-{2-[2-(2-{[2-(2,6-Dioxopiperidin-3-yl)-1,3-dioxo-2,3-dihydro-1H-isoindol-4-yl]amino}ethoxy)ethoxy]ethoxy}-N-[2-(1-methyl-6-oxo-1,6-dihydropyridazin-3-yl)-1,3-benzoxazol-5-yl]pyridine-2-carboxamide]: the IC50 in data set [1] was below 0.1 µM. The Kd in data set [2] was 0.1 to 0.5 µM.
For `CN1C(=O)CCC(N2C(=O)c3cccc(NCCOCCOCCOc4ccc(COc5ccc6oc(-c7ccc(=O)n(C)n7)nc6c5)nc4)c3C2=O)C1=O` (stereo not drawn) [Compound 30] the same measures were below 0.1 µM and above 0.5 µM.
The corresponding values for `Cn1nc(-c2nc3cc(NC(=O)c4ccc(OCCOCCOCCOCCOCCOCCNc5cccc6c5C(=O)N(C5CCC(=O)NC5=O)C6=O)cn4)ccc3o2)ccc1=O` (stereo not drawn) [Compound 32] are below 0.1 µM and 0.1 to 0.5 µM.
Turning to `Cn1nc(-c2nc3cc(NC(=O)c4ccc(OCCOCCOCCOCCOCCOCCOCCOCCOCCOCCOCCOCCOCCOCCOCCOCCNc5cccc6c5C(=O)N(C5CCC(=O)NC5=O)C6=O)cn4)ccc3o2)ccc1=O` (stereo not drawn) [Compound 37], in data set [1] (setting [6]), the IC50 was below 0.1 µM. The molecule also had a Kd in data set [2] of 0.1 to 0.5 µM.
In data set [1], `CN1C(=O)CCC(N2C(=O)c3cccc(NCCOCCOCCOCCOCCOCCOc4ccc(C(=O)Nc5ccc6oc(-c7ccc(=O)n(C)n7)nc6c5)nc4)c3C2=O)C1=O` (stereo not drawn) [Compound 39] came in with an IC50 below 0.1 µM. This molecule showed a Kd in data set [2] above 0.5 µM.
As to `Cn1nc(-c2nc3cc(NC(=O)c4ccc(OCCOCCOCCOCCOCCOCCOCCOCCOCCOCCOCCOCCNc5cccc6c5C(=O)N(C5CCC(=O)NC5=O)C6=O)cn4)ccc3o2)ccc1=O` (stereo not drawn) [Compound 34], the IC50 in data set [1] (setting [6]) was below 0.1 µM. Also, the Kd in data set [2] was above 0.5 µM.
Regarding `CN1C(=O)CCC(N2C(=O)c3cccc(NCCOCCOCCOCCOCCOCCOCCOCCOCCOCCOCCOCCOc4ccc(C(=O)Nc5ccc6oc(-c7ccc(=O)n(C)n7)nc6c5)nc4)c3C2=O)C1=O` (stereo not drawn) [Compound 40], the IC50 in data set [1] (setting [6]) is below 0.1 µM. The Kd in data set [2] is above 0.5 µM.
`Cn1nc(-c2nc3cc(NC(=O)c4ccc(OCCOCCOCCOCCNc5cccc6c5C(=O)N(C5CCC(=O)NC5=O)C6=O)cn4)ccc3o2)ccc1=O` (stereo not drawn) [Compound 36] displayed an IC50 in data set [1] below 0.1 µM. Besides, the Kd in data set [2] lay in the range of 0.1 to 0.5 µM.
Take `Cc1ncsc1-c1ccc(CNC(=O)[C@@H]2C[C@@H](O)CN2C(=O)[C@@H](NC(=O)CCOCCOc2ccc(C(=O)Nc3ccc4oc(-c5ccc(=O)n(C)n5)nc4c3)nc2)C(C)(C)C)cc1` [Compound 21]: the IC50 in data set [1] was below 0.1 µM. The Kd in data set [4] was 0.1 to 0.5 µM.
